# According to patent US5773424A, “Treatment of toxoplasmosis” (priority 1994, dated 1998):
# Where two headings read alike, the source gives them in different places.
# Experiments:
# [1] = tested on: extracts from different strains of Toxoplasma; assay: Conversion of NBMPR to NBMPR-P in the presence of ATP or PRPP by extracts of different strains; type: biochemical, Toxoplasma gondii
# Protocol: Maintenance of T. gondii. The wild type RH, the adenosine kinase deficient mutant ara-A^R (R), and the phosphoribosyltransferase deficient mutants (HGPRT^- and Tnx^R-1) strains of T. gondii were propagated by intraperitoneal passage in female CD1 mice (20-25 g). Mice were injected intraperitoneally (i.p.) with an inoculum (10^6 cells) of T. gondii contained in 0.2 ml of sterile phosphate buffered saline (PBS), pH 7.2, and were sacrificed after 2-3 days by inhalation of ether. The parasites were harvested from the peritoneal cavity by injection, aspiration and reinjection of 3-5 mL of PBS (2-3 times). The peritoneal fluid was examined microscopically to determine the concentration of T. gondii and to ascertain the extent of contamination by host cells.
# (§1) Enzyme assay. […] Incubation was carried out at 37° C.
# Phosphoribosyltransferase activity was measured by following the formation of [^3 H] NMMPR-P from [^3 H] NBMPR and 5-phosphoribosyl-1-pyrophosphate (PRPP). The standard reaction mixtures contained 50 mM Tris-Cl (pH 7.4), 10 μM [^3 H] NBMPR (55 Ci/mol), 4 mM PRibPP, 20 mM MgCl2, 50 mM KCI, and 50 μl of enzyme extract (4-8 μg of protein) in a final volume of 100 μl. Reactions were incubated at 37° C. and terminated in boiling water bath for 2 minutes. Precipitated proteins were removed by centrifugation. A 10 μl aliquot of the resulting supernatant was spotted on cellulose thin layer chromatography plates which were developed with 5% dibasic potassium phosphate. The average Rf values were as follows: NBMPR, 0.28; NBMP, 0.16; NBMPR-P, 0.44. The radioactivity was quantified using a Berthold TLC Linear Analyzer (Wallac, Inc., Gaithersburg, Md.). All assays were run under conditions in which velocity was linear with respect to time and amount of enzyme extract. Enzyme velocity was calculated by multiplying the fraction of nucleotide formed from nucleoside by the amount of nucleoside in the assay divided by the incubation time. Specific activity was estimated by dividing enzyme velocity by the amount of protein in the assay.
# [2] = tested on: Toxoplasma gondii grown in human fibroblasts; assay: Plaque formation in human fibroblasts; type: cell-based; conditions: control (0 μM) 21 ± 3.5
# Source text: To investigate the effect of metabolizing NBMPR on the survival of T. gondii, the number and size of plaque formation by T. gondii on human fibroblasts was investigated. NBMPR decreased the number and size of toxoplasma in human fibroblasts (Table 13).
# [3] = tested on: Toxoplasma gondii grown in human fibroblasts; assay: Incorporation of radiolabeled uracil (parasite survival); type: cell-based; conditions: Toxoplasma gondii, Fibroblast, [5,6-3H]uracil incorporation, read-out: percent survival of Toxoplasma gondii grown in human fibroblasts
# Protocol: Incorporation of Radiolabeled Uracil. […] Uptake and incorporation of radiolabeled uracil into nucleic acids of T. gondii were carried out, at least in triplicates, in tissue culture, using monolayers of human foreskin fibroblasts infected with T. gondii. The fibroblasts were cultured in no more than 30 passages in Dulbecco's modified Eagle medium, containing 100 units/mL penicillin G and 100 μg/mL streptomycin sulfate, and 10% FBS, pH 7.2. Briefly, confluent cells (4-5 day incubation) were cultured for 24 hours in the 24-well flat bottom microtiterplates (~5×10^5 /1 mL/well) and incubated at 37° C. in 5% CO2, 95% air to allow the cells to attach. The medium was then removed and the cells were infected with isolated T. gondii in medium with 3% FBS (1 parasite/cell). After 1 hour incubation, the cultures were washed with media with 10% FBS to remove extracellular parasites. FBS was maintained at a final concentration of 10%. […] After an additional 18 hours incubation, the medium was replaced with 1 mL drug free media containing […] (2 μCi/mL) and incubated for another 6 hours, after which the media was removed. The fibroblasts were released from the wells by trypsinization with the addition of 200 μL trypsin/EDTA (2.5×) to each well. After 10 minutes incubation, 1 mL of ice cold 10% trichloroacetic acid (TCA) was added to each well. The plates were then placed on a shaker to insure the detachment of the cells. The suspended contents of each well were filtered through GF/A 2.4 cm glass microfiber filters (Whatman, Hillsboro, Oreg.), which were prewashed each with 1 mL double distilled H2 O and dried. After filtration, the filters were washed with 10 mL methanol, left to dry, and then placed in scintillation vials containing 5 mL of Econo-Safe scintillation fluor (Research Products International Corp., Mount Prospect, Ill.), and radioactivity was counted using an LS5801 Beckman scintillation counter.
# [4] = Toxicity of compounds, MTT assay; type: cell-based, human; conditions: human, foreskin fibroblasts
# Protocol: Toxicity of compounds. Toxicity of the different doses of the various analogues were performed at least in triplicates, using a modification of the Microculture Tetrazolium (MTT) assay and uninfected monolayers of human foreskin fibroblasts. Briefly, confluent cells were incubated for at least 24 hours in the 96-well flat bottom microtiterplates (~10^5 /200 μL/well) and incubated at 37° C. in 5% CO2, 95% air to allow the cells to attach. The medium was then replaced with 200 μL of fresh medium. […] The cultures were then incubated for 48 hours, after which 50 μL of sterile MTT solution (2 mg/1 mL PBS) was added to each well. MTT solution was sterilized by filtration through 0.22 μm filters (Costar, Cambridge, Mass.). After 4 hours incubation, the medium was removed and 100 μL of dimethylsulfoxide (DMSO) was added to each well and the plates were shaken gently for 2-3 minutes to dissolve the formed formazan crystals. The absorbance was measured at 540 nm, using a computerized microtiterplate reader (Themomax, Molecular Division)
# [5] = tested on: extracts of Toxoplasma gondii; conditions: 50 µM; for Percent conversion of NBMPR to NBMP: t. gondii extract; for Percent conversion of NBMPR to NBMPR-P / Percent conversion of NBMPR to nucleobase (NBMP): toxoplasma gondii
# Protocol: (§2) Preparation of extracts. Extracts of T. gondii were prepared by homogenizing parasites or tissues in ice cold (3:1, v/w) 50 mM Tris-Cl buffer (pH 7.4) containing 1 mM EDTA, 1 mM dithiothreitol with a polytron homogenizer (Brinkmann, Westbury, N.Y.) and the homogenates were centrifuged at 105,000×g for 1 hour at 4° C. The supernatant fluids (cytosol) were collected and used as the enzyme source.
# (§3) Conversion assays. To measure the percent conversion of NBMPR to NBMPR-P and nucleobase (NBMP) by extracts of Toxoplasma gondii and mouse spleen, 50 mM Tris-Cl (pH 7.4), 5 mM MgCl2, 2.5 mM ATP, 5 mM creatine phosphate, creatine phosphokinase, 50 μM [^3 H-(G)] NBMPR (1.95 μCi/nmol), and 10 μl of cytosol extract were reacted in a final volume of 20 μl and incubated at 37° C. Reaction was initiated by addition of extract and terminated by boiling for 3 minutes. In a second reaction, 25 mM KCN was added to the reaction mixture.
# (§4) The plates for the assays of NBMPR were developed in n-butanol/ethyl acetate/NH4 /methanol (49:28:28:21, v/v/v/v). The Rf values were: NBMPR, 0.76; NBMPR-P, 0.50; NBMP, 0.89. The amounts of radioactivity in the substrate (nucleoside) and product (nucleobase and nucleotides) were calculated on a percentage basis using a Berthold LB-284 Automatic TLC-Linear Analyzer.
# extracts of mouse spleen = conditions: spleen cytosol extract, 50 µM
# Protocol: as §2, §3, §4
# [6] = tested on: extracts of Toxoplasma gondii; assay: Inhibition of phosphorylation of NBMPR (formation of NBMPR-P); type: biochemical
# Protocol: as §1
# extracts of human liver = assay: Inhibition of phosphorylation of NBMPR; type: biochemical
# Protocol: as §1
# [7] = tested on: extracts of Toxoplasma gondii; assay: Inhibition of phosphorylation of adenosine (or inosine) to nucleoside 5'-monophosphate; type: biochemical; conditions: T. gondii extract
# Protocol: as §1
# [8] = tested on: extracts from human liver; assay: Inhibition of phosphorylation of adenosine; type: biochemical; conditions: human liver extract
# Protocol: as §1
# [9] = tested on: extracts from mouse liver; assay: Inhibition of phosphorylation of adenosine; type: biochemical; conditions: mouse liver extract
# Protocol: as §1
# [10] = biological target: T. gondii adenosine kinase (Toxoplasma gondii, UniProt Q9TVW2); assay: biochemical; conditions: AppKi for inhibition of T. gondii adenosine kinase, 5 μM adenosine; ± range, at least two estimations
# T. gondii adenosine kinase, sequence (Q9TVW2 whole entry): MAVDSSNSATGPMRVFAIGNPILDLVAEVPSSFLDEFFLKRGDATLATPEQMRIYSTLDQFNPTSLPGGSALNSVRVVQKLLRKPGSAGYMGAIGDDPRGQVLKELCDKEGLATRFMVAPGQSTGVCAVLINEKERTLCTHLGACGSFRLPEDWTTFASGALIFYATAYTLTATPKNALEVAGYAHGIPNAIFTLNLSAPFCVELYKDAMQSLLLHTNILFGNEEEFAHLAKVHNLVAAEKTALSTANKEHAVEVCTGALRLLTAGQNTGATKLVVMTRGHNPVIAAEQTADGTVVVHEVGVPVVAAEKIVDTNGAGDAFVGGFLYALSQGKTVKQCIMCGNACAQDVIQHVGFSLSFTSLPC
structure (smiles),measurement,setting,value
"O=[N+]([O-])c1ccc(CSc2ncnc3c2ncn3[C@@H]2O[C@H](CO)[C@@H](O)[C@H]2O)cc1 [Compound 21, 6-(p-Nitrobenzyl)mercaptopurine riboside (NBMPR)]",Percent conversion of NBMPR to NBMPR-P,"[1]; strain Ara-A^R, +ATP",0%
same,Percent conversion of NBMPR to NBMPR-P,"[1]; strain Ara-A^R, +PRPP",3.8 ± 0.2%
same,Percent conversion of NBMPR to NBMPR-P,"[1]; strain HGPRT^-, +ATP",2.6 ± 1.3%
same,Percent conversion of NBMPR to NBMPR-P,"[1]; strain HGPRT^-, +PRPP",0%
same,Percent conversion of NBMPR to NBMPR-P,"[1]; strain RH, +ATP",0.7 ± 0.2%
same,Percent conversion of NBMPR to NBMPR-P,"[1]; strain RH, +PRPP",4.3 ± 0.3%
same,Percent conversion of NBMPR to NBMPR-P,"[1]; strain Thx^R-1, +ATP",2.0 ± 0.6%
same,Percent conversion of NBMPR to NBMPR-P,"[1]; strain Thx^R-1, +PRPP",0%
same,Number of Plaques,[2]; NBMPR 33 μM,23 ± 0.7
same,Number of Plaques,[2]; NBMPR 100 μM,3 ± 1.4
same,activity at 5 µM,[3]; 5 μM,74.3%
same,activity at 10 µM,[3]; 10 μM,55.5%
same,activity at 25 µM,[3]; 25 μM,23.1%
same,activity at 50 µM,[3]; 50 μM,6.7%
same,"viability at 48 h, 5 µM",[4],98.8%
same,"viability at 48 h, 10 µM",[4],97.1%
same,"viability at 48 h, 25 µM",[4],96.3%
same,"viability at 48 h, 50 µM",[4],95.4%
same,Percent conversion of NBMPR to NBMP,[5]; 0.25 h,0.9 ± 0.3%
same,Percent conversion of NBMPR to NBMP,[5]; 0.5 h,2.8 ± 3.8%
same,Percent conversion of NBMPR to NBMP,[5]; 1 h,4.0 ± 1.3%
same,Percent conversion of NBMPR to NBMP,[5]; 2 h,9.5 ± 1.3%
same,Percent conversion of NBMPR to NBMP,[5]; 4 h,14.3 ± 3.3%
same,Percent conversion of NBMPR to NBMPR-P,"[5]; cytosol extract with kcn, 0.25 h",0.5 ± 0.1%
same,Percent conversion of NBMPR to NBMPR-P,"[5]; cytosol extract with kcn, 0.5 h",1.1 ± 0.1%
same,Percent conversion of NBMPR to NBMPR-P,"[5]; cytosol extract with kcn, 1 h",3.7 ± 2.5%
same,Percent conversion of NBMPR to NBMPR-P,"[5]; cytosol extract with kcn, 2 h",5.8 ± 0.7%
same,Percent conversion of NBMPR to NBMPR-P,"[5]; cytosol extract with kcn, 4 h",11.8 ± 4.8%
same,Percent conversion of NBMPR to NBMPR-P,"[5]; cytosol extract, 0.25 h",2.1 ± 0.5%
same,Percent conversion of NBMPR to nucleobase (NBMP),"[5]; cytosol extract, 0.25 h",8.0 ± 0.4%
same,Percent conversion of NBMPR to NBMPR-P,"[5]; cytosol extract, 0.5 h",3.2 ± 0.4%
same,Percent conversion of NBMPR to nucleobase (NBMP),"[5]; cytosol extract, 0.5 h",7.8 ± 3.7%
same,Percent conversion of NBMPR to NBMPR-P,"[5]; cytosol extract, 1 h",7.8 ± 1.5%
same,Percent conversion of NBMPR to nucleobase (NBMP),"[5]; cytosol extract, 1 h",14.8 ± 1.2%
same,Percent conversion of NBMPR to NBMPR-P,"[5]; cytosol extract, 2 h",9.4 ± 1.0%
same,Percent conversion of NBMPR to nucleobase (NBMP),"[5]; cytosol extract, 2 h",9.4 ± 2.8%
same,Percent conversion of NBMPR to NBMPR-P,"[5]; cytosol extract, 4 h",15.1 ± 4.4%
same,Percent conversion of NBMPR to nucleobase (NBMP),"[5]; cytosol extract, 4 h",10.4 ± 6.2%
same,Percent conversion of NBMPR to NBMPR-P,extracts of mouse spleen; 0.25 h,0%
same,Percent conversion of NBMPR to nucleobase (NBMP),extracts of mouse spleen; 0.25 h,0%
same,Percent conversion of NBMPR to NBMPR-P,extracts of mouse spleen; 0.5 h,0%
same,Percent conversion of NBMPR to nucleobase (NBMP),extracts of mouse spleen; 0.5 h,0%
same,Percent conversion of NBMPR to NBMPR-P,extracts of mouse spleen; 1 h,0%
same,Percent conversion of NBMPR to nucleobase (NBMP),extracts of mouse spleen; 1 h,0%
same,Percent conversion of NBMPR to NBMPR-P,extracts of mouse spleen; 2 h,0%
same,Percent conversion of NBMPR to nucleobase (NBMP),extracts of mouse spleen; 2 h,0%
same,Percent conversion of NBMPR to NBMPR-P,extracts of mouse spleen; 4 h,0%
same,Percent conversion of NBMPR to nucleobase (NBMP),extracts of mouse spleen; 4 h,0%
"Nc1nc2c(nc(N)n2[C@@H]2O[C@H](CO)[C@@H](O)[C@H]2O)c(=O)[nH]1 [8-Aminoguanosine, reference compound]","% Inhibition of phosphorylation of NBMPR, T. gondii",[6]; 25 μM,0%
same,"% Inhibition of phosphorylation of NBMPR, T. gondii",[6]; 50 μM,0%
same,"% Inhibition of phosphorylation of NBMPR, T. gondii",[6]; 100 μM,0%
same,"% Inhibition of phosphorylation of NBMPR, Human Liver",extracts of human liver; 25 μM,0%
same,"% Inhibition of phosphorylation of NBMPR, Human Liver",extracts of human liver; 50 μM,0%
same,"% Inhibition of phosphorylation of NBMPR, Human Liver",extracts of human liver; 100 μM,0%
same,"Effect on the phosphorylation of adenosine, in words",[7],no effect
same,"Effect on the phosphorylation of adenosine, in words",[8],no effect
same,"Effect on the phosphorylation of adenosine, in words",[9],no effect
"Nc1ncnc2c([C@@H]3O[C@H](CO)[C@@H](O)[C@H]3O)n[nH]c12 [Compound 81, 8-Aza-9-deazaadenosine (formycin A)]",Ki,[10],1.4 mM
same,"% Inhibition of phosphorylation of NBMPR, T. gondii",[6]; 100 μM,0%
same,"% Inhibition of phosphorylation of NBMPR, T. gondii",[6]; 250 μM,0%
same,"% Inhibition of phosphorylation of NBMPR, T. gondii",[6]; 500 μM,0%
same,"% Inhibition of phosphorylation of NBMPR, Human Liver",extracts of human liver; 100 μM,0%
same,"% Inhibition of phosphorylation of NBMPR, Human Liver",extracts of human liver; 250 μM,0%
same,"% Inhibition of phosphorylation of NBMPR, Human Liver",extracts of human liver; 500 μM,0%
same,"Effect on the phosphorylation of adenosine, in words",[7],no effect
same,"Effect on the phosphorylation of adenosine, in words",[8],no effect
same,"Effect on the phosphorylation of adenosine, in words",[9],no effect
